In assay [1] the target is T1, human GLP-1R (Homo sapiens, UniProt P43220). The assay is described as follows: GLP-1R HEK293 cell membrane [35S]GTPγS binding assay. It counts as biochemical. The arrangement: expressed in transfected cells; host or cells: HEK293 cells expressing human GLP-1R; membranes. The settings on record: HEK293 cell membranes expressing human GLP-1R, [35S]GTPγS binding; read-out: hGLP1R GTPgS Rel EC50 nM (SEM, n). A digest of the protocol:
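Membranes from HEK293 cells expressing the receptor incubated with peptide and […] [35S]GTPγS in HEPES pH 7.4 buffer with NaCl, MgCl2, saponin and BSA, 30 min at room temperature. Gαs-bound label captured by anti-Gαs antibody/SPA beads and counted; EC50 from four-parameter logistic fit.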

Assay [2] concerns the target T2, gastric inhibitory peptide receptor (GIPR) (Homo sapiens, UniProt P48546).
T2 sequence (P48546 22-466): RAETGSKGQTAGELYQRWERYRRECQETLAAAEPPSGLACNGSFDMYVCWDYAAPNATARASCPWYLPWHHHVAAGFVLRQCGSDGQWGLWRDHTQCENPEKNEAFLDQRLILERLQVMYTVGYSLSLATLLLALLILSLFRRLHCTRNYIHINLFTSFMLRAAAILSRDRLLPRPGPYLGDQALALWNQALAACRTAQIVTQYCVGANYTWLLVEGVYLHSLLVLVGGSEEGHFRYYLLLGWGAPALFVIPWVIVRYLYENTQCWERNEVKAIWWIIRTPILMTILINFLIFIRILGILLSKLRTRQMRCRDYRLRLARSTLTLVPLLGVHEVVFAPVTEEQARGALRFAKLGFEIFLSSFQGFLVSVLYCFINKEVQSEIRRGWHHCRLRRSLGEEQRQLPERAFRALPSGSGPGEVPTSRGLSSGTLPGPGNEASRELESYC
Description: cAMP pharmacological functional assay in presence of casein, hGIPR. It counts as cell-based. The conditions noted are these: HEK293 cells expressing hGIPR, 0.1% Casein, geometric mean; read-out: hGIPR cAMP Rel EC50 nM (SEM, n).

Assay [3] concerns the target T1, human GLP-1R. Description: [125I]-GLP-1 binding (SPA), human GLP-1 receptor. The arrangement: expressed in transfected cells; crude membranes. The conditions noted are these: read-out: hGLP1R Ki, (nM) (SEM, n). The gist of the method: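 Membranes: hypotonic lysis (50 mM Tris HCl, pH 7.5, protease inhibitors), Potter-Elvehjem homogenization, high-speed pellet (35000×g 1 h or 25000×g 30 min, 4° C.). Buffer: 25 mM HEPES pH 7.4, 2.5 mM CaCl2, 1 mM MgCl2. Four-parameter IC50 fit; Ki as geometric mean ± SEM.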

The target of assay [4] is human GLP-1 receptor (GLP-1R) (Homo sapiens, UniProt P43220). Description: cAMP pharmacological functional assay in presence of casein, hGLP-1R. It counts as cell-based. The settings on record: HEK293 cells expressing hGLP-1R, 0.1% Casein, geometric mean; read-out: hGLP1R cAMP Rel EC50 nM (SEM, n).
The target in a further assay is T3, human Gcg receptor (Homo sapiens, UniProt P47871).
T3 construct: expressed in transfected cells; crude membranes
The assay is described as follows: [125I]-Glucagon binding (SPA), human Gcg receptor. The settings on record: read-out: hGLcgR Ki, nM (SEM, n). A digest of the protocol: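 Cell pellets were lysed in hypotonic Tris buffer, pH 7.5, homogenized, and spun at low then high speed to give crude membranes. Ki was derived from the fitted IC50.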

The target of the next assay is T4, human GIP receptor (Homo sapiens, UniProt P48546).
T4 construct: expressed in transfected cells; crude membranes
T4 sequence (P48546 22-466): T2 sequence (P48546 22-466)
The assay is described as follows: [125I]-GIP binding (SPA), human GIP receptor. The settings on record: read-out: hGIPR Ki, nM (SEM, n).

Assay [5] addresses T1, human GLP-1R. The assay is described as follows: GLP-1R CHO cell β-arrestin recruitment assay. It counts as cell-based. On the set-up: host or cells: CHO-K1 PathHunter cells, assay-ready frozen. The settings on record: for EC50: CHO-K1 cells, PathHunter β-arrestin-2 recruitment, 0.1% casein, read-out: hGLP1R B-Arrestin2 Rel EC50 uM (SEM, n); for hGLP1R B-Arrestin2 % Top: normalized to GLP-1 maximum control. A digest of the protocol: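 PathHunter CHO-K1 cells with ProLink-tagged human GLP-1R and enzyme-acceptor-tagged β-arrestin-2 treated with serially diluted peptides in assay buffer containing 0.1% hydrolyzed casein, 90 min at 37 °C.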
(In general: Activated receptors often draw arrestin, which recruitment assays turn into a signal.)

The structures appear in SMILES notation. Numbered stars: 1 amine (or outer) side, 2 acyl side, 3 side chain; on linkers, the order of the positions; unused ones are H or OH. Square brackets hold non-standard residues; d marks the D form. Side chains are listed from the residue outwards. Peptide text beside a SMILES is read from it. * marks the point of attachment. C20 diacid = O=C(O)CCCCCCCCCCCCCCCCCCC(=O)*; γGlu = O=C(O)[C@H](CCC(=O)[*:2])N[*:1]; αMeL = CC(C)C[C@](C)(N)C(=O)O; Orn = NCCC[C@H](N)C(=O)O; AEEA = NCCOCCOCC(=O)O; Aib = CC(C)(N)C(=O)O

T3 sequence (P47871 26-477): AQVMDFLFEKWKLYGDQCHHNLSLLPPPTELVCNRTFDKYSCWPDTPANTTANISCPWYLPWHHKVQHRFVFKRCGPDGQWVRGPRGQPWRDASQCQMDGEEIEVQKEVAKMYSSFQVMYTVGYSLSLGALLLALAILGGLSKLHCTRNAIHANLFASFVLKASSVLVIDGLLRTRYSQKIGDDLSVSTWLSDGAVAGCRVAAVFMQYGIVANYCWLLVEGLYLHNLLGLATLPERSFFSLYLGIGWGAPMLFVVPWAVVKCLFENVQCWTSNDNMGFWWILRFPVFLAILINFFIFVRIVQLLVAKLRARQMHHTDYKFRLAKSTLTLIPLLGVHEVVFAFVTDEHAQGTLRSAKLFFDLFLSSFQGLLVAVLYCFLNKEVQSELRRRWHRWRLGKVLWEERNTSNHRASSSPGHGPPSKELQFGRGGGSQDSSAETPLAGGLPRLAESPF
Sequence of human GLP-1 receptor (GLP-1R) (P43220 24-463): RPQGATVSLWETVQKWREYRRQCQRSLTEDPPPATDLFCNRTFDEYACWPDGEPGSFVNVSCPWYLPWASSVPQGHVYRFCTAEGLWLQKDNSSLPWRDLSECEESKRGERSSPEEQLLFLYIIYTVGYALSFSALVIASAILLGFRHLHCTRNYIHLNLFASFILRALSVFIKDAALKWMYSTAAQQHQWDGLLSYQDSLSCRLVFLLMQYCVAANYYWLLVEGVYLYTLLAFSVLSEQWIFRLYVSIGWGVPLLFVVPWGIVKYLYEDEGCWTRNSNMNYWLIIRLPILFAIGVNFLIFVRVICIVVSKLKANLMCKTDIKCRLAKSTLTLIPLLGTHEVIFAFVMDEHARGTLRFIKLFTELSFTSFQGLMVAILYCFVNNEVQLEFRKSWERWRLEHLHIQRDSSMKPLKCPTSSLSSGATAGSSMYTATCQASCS
T1 sequence (P43220 24-463): as above

As a reminder, the EC50 is the concentration at which the effect is half-maximal. What is called Ki is the dissociation constant of the complex between target and ligand, obtained from inhibition or displacement. `CC[C@H](C)[C@H](NC(=O)[C@H](CC(C)C)NC(=O)[C@H](Cc1ccc(O)cc1)NC(=O)[C@H](CCC(=O)O)NC(=O)[C@@H](NC(=O)[C@H](Cc1ccccc1)NC(=O)[C@H](C)NC(=O)C(C)(C)NC(=O)[C@H](CCC(N)=O)NC(=O)[C@H](C)NC(=O)[C@H](CCCCNC(=O)COCCOCCNC(=O)COCCOCCNC(=O)CC[C@H](NC(=O)CCCCCCCCCCCCCCCCCCC(=O)O)C(=O)O)NC(=O)[C@H](CCCN)NC(=O)[C@H](CC(=O)O)NC(=O)[C@H](CC(C)C)NC(=O)[C@](C)(CC(C)C)NC(=O)[C@@H](NC(=O)[C@H](CO)NC(=O)[C@H](Cc1ccc(O)cc1)NC(=O)[C@H](CC(=O)O)NC(=O)[C@H](CO)NC(=O)[C@@H](NC(=O)[C@H](Cc1ccccc1)NC(=O)[C@@H](NC(=O)CNC(=O)[C@H](CCC(=O)O)NC(=O)C(C)(C)NC(=O)[C@H](N)Cc1ccc(O)cc1)[C@@H](C)O)[C@@H](C)O)[C@@H](C)CC)[C@@H](C)CC)C(=O)N[C@@H](C)C(=O)NCC(=O)NCC(=O)N1CCC[C@H]1C(=O)N[C@@H](CO)C(=O)N[C@@H](CO)C(=O)NCC(=O)N[C@@H](C)C(=O)N1CCC[C@H]1C(=O)N1CCC[C@H]1C(=O)N1CCC[C@H]1C(=O)N[C@@H](CO)C(N)=O` [Example 346] (H-[dY][Aib]EGTFTSDYSI[αMeL]LD[Orn]K([AEEA-AEEA-γGlu-C20 diacid])AQ[Aib]AFIEYLIAGGPSSGAPPPS-NH2): the EC50 at human GLP-1R [1] amounted to 0.737 nM; in assay [2] it was 0.144 nM; in assay [4], 0.128 nM; at human GLP-1R [5], 0.00325 µM. Besides, the figures for the Ki at human GLP-1R [3], on human Gcg receptor and on human GIP receptor were 1.67 nM, 310 nM and 0.0559 nM, respectively. Also, the “hGLP1R B-Arrestin2 % Top” value on human GLP-1R [5] was determined as 19.3%.
For the molecule `CC[C@H](C)[C@H](NC(=O)[C@H](CC(C)C)NC(=O)[C@H](Cc1ccc(O)cc1)NC(=O)[C@H](CCC(=O)O)NC(=O)[C@@H](NC(=O)[C@H](Cc1ccccc1)NC(=O)[C@H](CCC(=O)O)NC(=O)C(C)(C)NC(=O)[C@H](CCC(N)=O)NC(=O)[C@H](C)NC(=O)[C@H](CCCCNC(=O)COCCOCCNC(=O)COCCOCCNC(=O)CC[C@H](NC(=O)CCCCCCCCCCCCCCCCCCC(=O)O)C(=O)O)NC(=O)[C@H](CCCN)NC(=O)[C@H](CC(=O)O)NC(=O)[C@H](CC(C)C)NC(=O)[C@](C)(CC(C)C)NC(=O)[C@@H](NC(=O)[C@H](CO)NC(=O)[C@H](Cc1ccc(O)cc1)NC(=O)[C@H](CC(=O)O)NC(=O)[C@H](CO)NC(=O)[C@@H](NC(=O)[C@H](Cc1ccccc1)NC(=O)[C@@H](NC(=O)CNC(=O)[C@H](CCC(=O)O)NC(=O)C(C)(C)NC(=O)[C@H](N)Cc1ccc(O)cc1)[C@@H](C)O)[C@@H](C)O)[C@@H](C)CC)[C@@H](C)CC)C(=O)N[C@@H](C)C(=O)NCC(=O)NCC(=O)N1CCC[C@H]1C(=O)N[C@@H](CO)C(=O)N[C@@H](CO)C(=O)NCC(=O)N[C@@H](C)C(=O)N1CCC[C@H]1C(=O)N1CCC[C@H]1C(=O)N1CCC[C@H]1C(=O)N[C@@H](CO)C(N)=O` [Example 349] (H-[dY][Aib]EGTFTSDYSI[αMeL]LD[Orn]K([AEEA-AEEA-γGlu-C20 diacid])AQ[Aib]EFIEYLIAGGPSSGAPPPS-NH2), the EC50 on human GLP-1R [1] was 0.464 nM; in assay [2] it was 0.117 nM; in assay [4], 0.121 nM; at human GLP-1R [5] it was 0.0151 µM. Besides, the Ki is 1.72 nM on human GLP-1R [3], > 1060 nM on human Gcg receptor and 0.08 nM on human GIP receptor. Moreover, on human GLP-1R [5], the “hGLP1R B-Arrestin2 % Top” value is 18.4%.
With `CC[C@H](C)[C@H](NC(=O)[C@H](CC(C)C)NC(=O)[C@H](Cc1ccc(O)cc1)NC(=O)[C@@H](CCC(=O)O)NC(=O)[C@@H](NC(=O)[C@H](Cc1ccccc1)NC(=O)[C@H](C)NC(=O)C(C)(C)NC(=O)[C@H](CCC(N)=O)NC(=O)[C@H](C)NC(=O)[C@H](CCCCNC(=O)COCCOCCNC(=O)COCCOCCNC(=O)CC[C@H](NC(=O)CCCCCCCCCCCCCCCCCCC(=O)O)C(=O)O)NC(=O)[C@H](CCCCN)NC(=O)[C@H](CC(=O)O)NC(=O)[C@H](CC(C)C)NC(=O)[C@](C)(CC(C)C)NC(=O)[C@@H](NC(=O)[C@H](CO)NC(=O)[C@H](Cc1ccc(O)cc1)NC(=O)[C@H](CC(=O)O)NC(=O)[C@H](CO)NC(=O)[C@@H](NC(=O)[C@H](Cc1ccccc1)NC(=O)[C@@H](NC(=O)CNC(=O)[C@H](CCC(=O)O)NC(=O)C(C)(C)NC(=O)[C@H](N)Cc1ccc(O)cc1)[C@@H](C)O)[C@@H](C)O)[C@@H](C)CC)[C@@H](C)CC)C(=O)N[C@@H](C)C(=O)NCC(=O)NCC(=O)N1CCC[C@H]1C(=O)N[C@@H](CO)C(=O)N[C@@H](CO)C(=O)NCC(=O)N[C@@H](C)C(=O)N1CCC[C@H]1C(=O)N1CCC[C@H]1C(=O)N1CCC[C@H]1C(=O)N[C@@H](CO)C(N)=O` [Example 352] (H-[dY][Aib]EGTFTSDYSI[αMeL]LDKK([AEEA-AEEA-γGlu-C20 diacid])AQ[Aib]AFI[dE]YLIAGGPSSGAPPPS-NH2), the EC50 at human GLP-1R [1] came out at 0.552 nM; in assay [2], 0.127 nM; in assay [4] it was 0.142 nM; at human GLP-1R [5], 0.00421 µM. The values for the Ki on human GLP-1R [3], at human Gcg receptor and on human GIP receptor were 3.03 nM, > 1030 nM and 0.0726 nM, respectively. Further, the “hGLP1R B-Arrestin2 % Top” value at human GLP-1R [5] was determined as 17.4%.
As for `CC[C@H](C)[C@H](NC(=O)[C@H](CC(C)C)NC(=O)[C@H](Cc1ccc(O)cc1)NC(=O)[C@@H](CCC(=O)O)NC(=O)[C@@H](NC(=O)[C@H](Cc1ccccc1)NC(=O)[C@H](CCC(=O)O)NC(=O)C(C)(C)NC(=O)[C@H](CCC(N)=O)NC(=O)[C@H](C)NC(=O)[C@H](CCCCNC(=O)COCCOCCNC(=O)COCCOCCNC(=O)CC[C@H](NC(=O)CCCCCCCCCCCCCCCCCCC(=O)O)C(=O)O)NC(=O)[C@H](CCCN)NC(=O)[C@H](CC(=O)O)NC(=O)[C@H](CC(C)C)NC(=O)[C@](C)(CC(C)C)NC(=O)[C@@H](NC(=O)[C@H](CO)NC(=O)[C@H](Cc1ccc(O)cc1)NC(=O)[C@H](CC(=O)O)NC(=O)[C@H](CO)NC(=O)[C@@H](NC(=O)[C@H](Cc1ccccc1)NC(=O)[C@@H](NC(=O)CNC(=O)[C@H](CCC(=O)O)NC(=O)C(C)(C)NC(=O)[C@H](N)Cc1ccc(O)cc1)[C@@H](C)O)[C@@H](C)O)[C@@H](C)CC)[C@@H](C)CC)C(=O)N[C@@H](C)C(=O)NCC(=O)NCC(=O)N1CCC[C@H]1C(=O)N[C@@H](CO)C(=O)N[C@@H](CO)C(=O)NCC(=O)N[C@@H](C)C(=O)N1CCC[C@H]1C(=O)N1CCC[C@H]1C(=O)N1CCC[C@H]1C(=O)N[C@@H](CO)C(N)=O` [Example 354] (H-[dY][Aib]EGTFTSDYSI[αMeL]LD[Orn]K([AEEA-AEEA-γGlu-C20 diacid])AQ[Aib]EFI[dE]YLIAGGPSSGAPPPS-NH2; N-terminus assumed), the EC50 at human GLP-1R [1] came out at 0.967 nM; in assay [2], 0.233 nM; in assay [4] it was 0.54 nM; at human GLP-1R [5], 0.255 µM. Moreover, the Ki was 7.85 nM on human GLP-1R [3], > 953 nM at human Gcg receptor and 0.175 nM on human GIP receptor. On human GLP-1R [5], the “hGLP1R B-Arrestin2 % Top” value is recorded as 22.7%.

Values taken from patent publication US12252524B2, “GIP/GLP1 co-agonist compounds” (Eli Lilly and Company, priority 2018, dated 2025).
